The source of these data is patent US12377069B2, “Compounds, compositions, methods of using, and methods for preparing compounds” (UNIVERSITY OF LOUISVILLE RESEARCH FOUNDATION, INC., priority 2018, dated 2025).

In one data set the test system is Caco2 cells. Put plainly: LPS depletion of Ocln in colon epithelial cells. The class given is cell-based, human. The note with it: 10, 25, 50 μM, 24 h. The method, then: FIG. 12: UroA/UAS03 protect from LPS or alcohol induced depletion of Ocln and protected permeability. (A) Caco 2 cells were treated with LPS for 24 h at indicated doses and Western blots performed to determine expression of Ocln. (B) Caco2 cells were treated with LPS in combination with UroA or UAS03 (10, 25, 50 μM) for 24 h and determined Ocln expression.
UroA/UAS03 upregulate TJ proteins and protect against LPS induced damage: TJ proteins such as Cldn4, ZO-1, Ocln play a role in maintaining the gut epithelial integrity and protect the gut from external insults such as LPS. We investigated UroA/UAS03 effects on TJ protein regulation in colon epithelial cells, HT-29 and Caco2 cells. […] ALD is associated with disrupted TJs, increased permeability, inflammation and endotoxemia. Ocln is a tight junction protein expressed in intestinal epithelium and plays a role in maintenance of gut barrier function. We examined whether UroA/UAS03 can protect LPS (endotoxin) depletion of Ocln in colon epithelial cells. […] For this purpose, we have utilized Caco-2 monolayer cells on transwell membranes and performed transepithelial electrical resistance (TEER) and FITC-dextran permeability assays.

The next data set deals with Caco2 or HT29 cells. The data set can be described thus: In vitro FITC-dextran permeability assay. The class given is cell-based, human. The note with it: pretreatment 50 μM 24 h; LPS 50 ng/ml 2 h. The method, then: In vitro permeability study: For in vitro cellular permeability studies, Caco2 cells or HT29 cells (2×10^4 cells/cm^2) were seeded in 24-well Transwell® plates (Cornings; USA), on polyester membrane filters (pore size 0.4 μm, surface area 1.12 cm^2) (KOWAPRADIT et al. (2010) “In vitro permeability enhancement in intestinal epithelial cells (Caco-2) monolayer of water soluble quaternary ammonium chitosan derivatives” Aaps Pharmscitech, Vol. 11, pp. 497-508). Culture medium was added to both apical and basal chamber and the medium was changed every other day up to 21 days for Caco2 cells or 5-7 days for HT29 cells. For Caco2 cells, transepethelial electrical resistance (TEER) was calculated using EMD Millipore Millicell-ERS2 Volt-Ohm Meter (Millipore). Filters (with cell monolayer) showing more than 600 Ω·cm^2 were used for permeability study. After cells reach desired confluence (monolayered cells), cells were pre-treated with vehicle (0.01% DMSO) UroA (50 μM) and UAS03 […] for 24 hours. After treatment, monolayer was washed with PBS to remove any residual drug and 200 μL of LPS (50 ng/ml in HBSS) was added to each well and incubated for 2 hours. […] After 2 h, a sample from the basal chamber was withdrawn and FD4 concentration was determined using fluorescence 96-wells plate reader at excitation and emission wavelengths were 480 and 525 nm, respectively.

The subject of data set [1] is colon cancer cell line (SW480). The data set can be described thus: Proliferation assay with 5FU. The note with it: for effect on cell proliferation, compound alone: without 5FU.
The subject of the next data set is colon explants. Put plainly: Colon explant culture. The arrangement: species or system mouse. The note with it: 50 μM, 24 h. The method, then:
Colon explant culture: Colon tissue pieces (0.5-1 cm length) from wild type (C57BL/6) or Nrf2^−/− or AhR^−/− mice were cultured in triplicates for 24 h in complete DMEM-high glucose medium (supplemented with 10% fetal bovine serum, 1× penicillin-streptomycin solution) in a humidified atmosphere in the presence of vehicle (0.01% DMSO), UroA (50 μM) or UAS03 (50 μM). The tissues were processed for protein preparation (tissue lysates with RIPA plus buffer) or total RNA isolation. These tissue lysates or RNA were used to determine the expression of Nrf2, Cldn4 and AhR.

Another data set relates to Cyp1A1. The data set can be described thus: Cyp1A1 enzyme activity in colon and liver microsomes of treated mice. It counts as in vivo, mouse. The note with it: 1 week; for Cyp1A1 activity in colon tissues compared to BNF and FICZ treated mice: UroA/UAS03 oral 20 mg/kg/day, FICZ i.p.; for Cyp1A1 activity increase in colons: i.p., UroA/UAS03 5 mg/kg/day, FICZ 1 μg/mouse/day; for Cyp1A1 activity in colon and liver, AhR^−/− mice / Cyp1A1 activity in colon and liver, wild type mice: oral 20 mg/kg, EROD. The method, then:
Measurements of Cyp1A1 enzyme activity (Ex vivo): Mice were treated with Vehicle or UroA or UAS03, BNF or FICZ daily for one week at indicated concentration either through oral or i.p. route. After one week, mice were euthanized and the colon and liver tissues were dissected. Microsomes from these tissues were prepared using the following procedure (SINGH et al., (2013) “Evaluation of memory enhancing clinically available standardized extract of Bacopa monniera on P-glycoprotein and cytochrome P450 3A in Sprague-Dawley rats” PloS one, Vol. 8, Article e72517). For hepatic microsomes, liver was first perfused with 0.9% sodium chloride solution and excised out. Adhering blood and saline was removed by blotting on tissue paper and tissue was homogenized in tissue homogenization buffer (50 mM Tris-HCl, pH 7.4 with 250 mM sucrose). Homogenate was centrifuged at 10,000×g for 30 minutes at 4° C. supernatant obtained was further centrifuged at 105,000×g for 60 minutes at 4° C. The pellet was washed with homogenization buffer and centrifuged again at 105,000×g for 60 minutes at 4° C. The pellet was suspended in homogenization buffer and used for protein and CYP assay. For intestinal microsome preparation, intestine was removed and washed with 0.9% sodium chloride. The intestine was longitudinally cut open to expose mucosal layer and mucosa was scrapped with help of glass slide. The scraped tissue was collected in homogenization buffer (50 mM Tris-HCl buffer containing glycerol (20% v/v), protease inhibitor (1%) and heparin (3 U/ml)). This suspended mucosa was homogenized and centrifuged at 10,000×g for 20 minutes at 4° C. Supernatant obtained was further centrifuged at 105,000×g for 60 minutes at 4° C. The pellet was washed with buffer and centrifuged again at 105,000×g for 60 minutes at 4° C. The pellet was suspended homogenization buffer and used for protein and CYP enzymes assays.
Ethoxyresorufin-O-deethylase (EROD) assay: The microsomal proteins (0.5 mg) were mixed with 200 μL Tris buffer (0.1 M, pH 7.4) containing ethoxyresorufin (0.01 mM). To start reaction, NADPH (0.1 mM) was added and incubated at 37° C. for 10 min. After 10 min, reaction was terminated by adding equal volume of acetonitrile and reaction mixture was centrifuged at 13000×g for 10 min at 4° C. Supernatant was used to determine resorufin by measuring fluorescence (Ex. 530 nm, Em. 580 nm). Pure resorufin (Sigma Aldrich) was used to generate standard curve.
P450-Glo Cyp1A1 luminiscence assay: The above microsomes (20 μg) were used for P450-Glo Cyp1A1 luminiscence assays as per manufacturer's instructions.

With `Oc1ccc2c(c1)COc1cc(O)ccc1-2` [UAS03, 6H-benzo[c]chromene-3,8-diol], the “LPS depletion of Ocln” value in the data set on Caco2 cells is “protected from depletion of Ocln”. Moreover, the “LPS induced leakage of FITC-dextran into bottom chambers” value in the data set with Caco2 or HT29 cells was “inhibited LPS induced leakage”. Moreover, the “fold less 5FU drug concentration to reach the similar effect” value in data set [1] (combination with 5FU) is reported as “more than 32 fold”. Besides, the “increase in the inhibition of cell proliferation” value in data set [1] (with 3.12 μM of 5FU) was “approximately 6 fold”. Moreover, the “cell viability in combination with 5FU” value in data set [1] (with 5FU) came out at 40%. Further, the “effect on cell proliferation, compound alone” value in data set [1] is recorded as “minimal effect”. In the data set with colon explants, the “Cldn4 and NQO1 in Nrf2^−/− and AhR^−/− colon explants” value is recorded as “did not appear to induce”; the “expression of Nrf2, NQO1 and Cldn4 in WT colon explants” value is reported as “induced the expression”. Also, in the data set on Cyp1A1, the “Cyp1A1 activity in colon tissues compared to BNF and FICZ treated mice” value is given as “relatively more Cyp1A1 activity in colon tissues”; the “Cyp1A1 activity increase in colons” value is given as about 3 fold; the “Cyp1A1 activity in colon and liver, AhR^−/− mice” value is listed as “but not in AhR^−/− mice”; the “Cyp1A1 activity in colon and liver, wild type mice” value is “activated Cyp1A1 activity”.

`O=c1oc2cc(O)ccc2c2ccc(O)cc12` [UroA, 3,8-dihydroxy-6H-dibenzo[b,d]pyran-6-one]: the “LPS depletion of Ocln” value with Caco2 cells is on record as “protected from depletion of Ocln”. The “LPS induced leakage of FITC-dextran into bottom chambers” value with Caco2 or HT29 cells is “inhibited LPS induced leakage”. The “effect on cell proliferation, compound alone” value in data set [1] was “minimal effect”. In the data set with colon explants, the “Cldn4 and NQO1 in Nrf2^−/− and AhR^−/− colon explants” value is listed as “did not appear to induce”; the “expression of Nrf2, NQO1 and Cldn4 in WT colon explants” value was “induced the expression”. In the data set on Cyp1A1, the “Cyp1A1 activity in colon tissues compared to BNF and FICZ treated mice” value is “relatively more Cyp1A1 activity in colon tissues”; the “Cyp1A1 activity increase in colons” value is about 3 fold; the “Cyp1A1 activity in colon and liver, AhR^−/− mice” value is “but not in AhR^−/− mice”; the “Cyp1A1 activity in colon and liver, wild type mice” value is given as “activated Cyp1A1 activity”.
